Laboratory results reported in patent US20220031723A1, “POWDERED FOOD COMPOSITION COMPRISING ERIOCITRIN” (EUROMED, S.A., priority 2020, published 2022).

experiment: Urinary excretion of quantified metabolites in collected fractions after extract intake; type: in vivo, human; settings: after consuming lemon extract; fraction 0 to 4 h; mean ± SD
Method: Table 4 and Table 5 show the urinary excretion of quantified metabolites at the different fractions collected, i.e., 0-4 h (F1), 4-8 h (F2), 8-10 h (F3), and 10-24 h (F4), after extracts intake.

In the case of `COc1ccc(C2CC(=O)c3c(O)cc(O)cc3O2)cc1OS(=O)(=O)O` (centres unmarked) [M14, Hesperetin 3'-O-sulfate], the “Metabolite quantified in urine fraction F1” value is reported as 1.9 ± 2.6 μg/mg creatinine.

same assay, conditions: after consuming lemon extract; fraction 4 to 8 h; mean ± SD

With `COc1ccc(C2CC(=O)c3c(O)cc(O)cc3O2)cc1OS(=O)(=O)O` (centres unmarked) [M14, Hesperetin 3'-O-sulfate] the “Metabolite quantified in urine fraction F2” value was 4.3 ± 4.5 μg/mg creatinine.

same assay, conditions: after consuming lemon extract; fraction 8 to 10 h; mean ± SD

With `COc1ccc(C2CC(=O)c3c(O)cc(O)cc3O2)cc1OS(=O)(=O)O` (centres unmarked) [M14, Hesperetin 3'-O-sulfate] the “Metabolite quantified in urine fraction F3” value was 3.3 ± 3.1 μg/mg creatinine.

same assay, conditions: after consuming lemon extract; fraction collected at 24 h (10-24 h); mean ± SD

In the case of `COc1ccc(C2CC(=O)c3c(O)cc(O)cc3O2)cc1OS(=O)(=O)O` (centres unmarked) [M14, Hesperetin 3'-O-sulfate], the “Metabolite quantified in urine fraction F4” value is reported as 0.7 ± 0.6 μg/mg creatinine.

same assay, conditions: after consuming lemon extract; sum of fractions F1-F4; mean ± SD

For `COc1ccc(C2CC(=O)c3c(O)cc(O)cc3O2)cc1OS(=O)(=O)O` (centres unmarked) [M14, Hesperetin 3'-O-sulfate], the “Metabolite quantified in urine, Total F (24 h)” value was 9.0 ± 9.1 μg/mg creatinine.

same assay, conditions: after consuming orange extract; fraction 0 to 4 h; mean ± SD

In the case of `COc1ccc(C2CC(=O)c3c(O)cc(O)cc3O2)cc1OS(=O)(=O)O` (centres unmarked) [M14, Hesperetin 3'-O-sulfate], the “Metabolite quantified in urine fraction F1” value is reported as 0.1 ± 0.3 μg/mg creatinine.

same assay, conditions: after consuming orange extract; fraction 4 to 8 h; mean ± SD

For `COc1ccc(C2CC(=O)c3c(O)cc(O)cc3O2)cc1OS(=O)(=O)O` (centres unmarked) [M14, Hesperetin 3'-O-sulfate], the “Metabolite quantified in urine fraction F2” value was 1.2 ± 3.3 μg/mg creatinine.

same assay, conditions: after consuming orange extract; fraction 8 to 10 h; mean ± SD

In the case of `COc1ccc(C2CC(=O)c3c(O)cc(O)cc3O2)cc1OS(=O)(=O)O` (centres unmarked) [M14, Hesperetin 3'-O-sulfate], the “Metabolite quantified in urine fraction F3” value is reported as 1.9 ± 3.1 μg/mg creatinine.

same assay, conditions: after consuming orange extract; fraction collected at 24 h (10-24 h); mean ± SD

In the case of `COc1ccc(C2CC(=O)c3c(O)cc(O)cc3O2)cc1OS(=O)(=O)O` (centres unmarked) [M14, Hesperetin 3'-O-sulfate], the “Metabolite quantified in urine fraction F4” value is reported as 0.6 ± 0.6 μg/mg creatinine.

same assay, conditions: after consuming orange extract; sum of fractions F1-F4; mean ± SD

In the case of `COc1ccc(C2CC(=O)c3c(O)cc(O)cc3O2)cc1OS(=O)(=O)O` (centres unmarked) [M14, Hesperetin 3'-O-sulfate], the “Metabolite quantified in urine, Total F (24 h)” value is reported as 3.8 ± 7.3 μg/mg creatinine.

experiment: Occurrence of plasma and urine metabolites in volunteers after consuming lemon or orange extract; type: in vivo, human; settings: human, in vivo
Text: Through a targeted metabolomic strategy, a total of 17 metabolites were tentatively identified (Table 3). No hesperidin or eriocitrin-derived metabolites were detected in any volunteer at baseline. All the identified metabolites were detected at least in one volunteer, independently of the extract consumed, except for the metabolites M9 (eriodictyol sulfoglucuronide) and M11 (hesperetin sulfoglucuronide), which only were detected after consuming lemon and orange extract, respectively (Table 3). These representative EICs illustrate the metabolites identified in urine (F3 fraction) after consuming lemon (FIG. 3A) and orange (FIG. 3B) extracts, and plasma after consuming lemon (FIG. 3C) and orange (FIG. 3D) extracts. From the 17 metabolites, 16 were detected after consuming lemon extract (except M11), and 15 after consuming orange extract (except M9 and M10 in urine, and M9 and M12 in plasma) (Table 3).

In order of rising “Occurrence Plasma LE (number of volunteers in whom metabolite was detected)” value:
1. Hesperetin sulfoglucuronide [M11]  0
2. O=C1C[C@@H](c2ccc(O)cc2)Oc2cc(O)cc(O)c21 [M15, Naringenin]  6
3. COc1ccc([C@@H]2CC(=O)c3c(O)cc(O)cc3O2)cc1O [M17, Hesperetin]  8
4. Eriodictyol sulfoglucuronide [M9]  15
5. COc1cc([C@@H]2CC(=O)c3c(O)cc(O)cc3O2)ccc1O [M16, Homoeriodictyol]  15
6. O=C1C[C@@H](c2ccc(O)c(O)c2)Oc2cc(O)cc(O)c21 [M12, Eriodictyol]  16
7. COc1ccc(C2CC(=O)c3c(O)cc(O)cc3O2)cc1OS(=O)(=O)O (centres unmarked) [M14, Hesperetin 3'-O-sulfate]  16

In order of falling “Occurrence Plasma LE (second column so headed; number of volunteers in whom metabolite was detected)” value:
1. COc1ccc(C2CC(=O)c3c(O)cc(O)cc3O2)cc1OS(=O)(=O)O (centres unmarked) [M14, Hesperetin 3'-O-sulfate]  16
2. Hesperetin sulfoglucuronide [M11]  8
3. COc1ccc([C@@H]2CC(=O)c3c(O)cc(O)cc3O2)cc1O [M17, Hesperetin]  3
4. O=C1C[C@@H](c2ccc(O)cc2)Oc2cc(O)cc(O)c21 [M15, Naringenin]  2
5. COc1cc([C@@H]2CC(=O)c3c(O)cc(O)cc3O2)ccc1O [M16, Homoeriodictyol]  1
6. Eriodictyol sulfoglucuronide [M9]  0
7. O=C1C[C@@H](c2ccc(O)c(O)c2)Oc2cc(O)cc(O)c21 [M12, Eriodictyol]  0

In order of rising “Occurrence Urine LE (number of volunteers in whom metabolite was detected)” value:
1. Hesperetin sulfoglucuronide [M11]  0
2. Eriodictyol sulfoglucuronide [M9]  5
3. COc1ccc([C@@H]2CC(=O)c3c(O)cc(O)cc3O2)cc1O [M17, Hesperetin]  5
4. O=C1C[C@@H](c2ccc(O)cc2)Oc2cc(O)cc(O)c21 [M15, Naringenin]  9
5. COc1cc([C@@H]2CC(=O)c3c(O)cc(O)cc3O2)ccc1O [M16, Homoeriodictyol]  12
6. O=C1C[C@@H](c2ccc(O)c(O)c2)Oc2cc(O)cc(O)c21 [M12, Eriodictyol]  14
7. COc1ccc(C2CC(=O)c3c(O)cc(O)cc3O2)cc1OS(=O)(=O)O (centres unmarked) [M14, Hesperetin 3'-O-sulfate]  16

In order of falling “Occurrence Urine LE (second column so headed; number of volunteers in whom metabolite was detected)” value:
1. COc1ccc(C2CC(=O)c3c(O)cc(O)cc3O2)cc1OS(=O)(=O)O (centres unmarked) [M14, Hesperetin 3'-O-sulfate]  16
2. COc1ccc([C@@H]2CC(=O)c3c(O)cc(O)cc3O2)cc1O [M17, Hesperetin]  8
3. Hesperetin sulfoglucuronide [M11]  7
4. O=C1C[C@@H](c2ccc(O)cc2)Oc2cc(O)cc(O)c21 [M15, Naringenin]  5
5. O=C1C[C@@H](c2ccc(O)c(O)c2)Oc2cc(O)cc(O)c21 [M12, Eriodictyol]  4
6. COc1cc([C@@H]2CC(=O)c3c(O)cc(O)cc3O2)ccc1O [M16, Homoeriodictyol]  1
7. Eriodictyol sulfoglucuronide [M9]  0
